Source: patent US20260008752A1, “POLYMORPHIC FORMS OF FLORBETAPIR PRECURSOR AV-105” (ELI LILLY AND COMPANY, priority 2022, published 2026)
Values after ≈ are worked out from the molar mass of the structure shown.

What was measured:
Assay type in all cases: physicochemical
[1] = Long term slurry experiments (solid form by XRPD after ~2 weeks)
Protocol: Samples of starting material were suspended in specified solvents and triturated at specified temperatures. After approximately 24 hours, suspensions were transferred into Spin-X centrifuge tubes equipped with solids 0.45-μm nylon filters and centrifuged. Solids separated were resuspended in fresh solvents and the agitation was continued for a total of 2 weeks. Solids were isolated as described above and analyzed by XRPD.
(§1) Unless otherwise specified, solids of AV-105 were composed of Form A and were agitated in specified solvents at specified temperatures. Solvents were replaced after approximately 24 hours, where possible. After ˜2 weeks, solids were separated from supernatants via centrifugation with filtration and analyzed by XRPD. Solubilities were evaluated as a single, small scale measurement via gravimetric method using supernatants separated from the solids. Organic solvents used are anhydrous. […] Approximate solvent ratios are expressed in % by volume. Temperatures and duration of experiments are approximate.

[2] = Differential scanning calorimetry (heat-of-fusion rule); settings: at all temperatures; forms monotropically related
Protocol: (onset) with a heat of fusion of 78.9 J/g (FIG. 4). […] This is consistent with the screen findings, where conversion of Form A into Form B has been observed in a wide temperature range, between 2-8° C. and 45° C.

[3] = Equilibrium solubility, gravimetric, from slurry supernatants; settings: thermodynamic from solid
Protocol: Measured aliquots of supernatants isolated from the solids were placed in pre-weighed TGA pans for evaporation.
as §1

Cc1ccc(S(=O)(=O)OCCOCCOCCOc2ccc(/C=C/c3ccc(N(C)C(=O)OC(C)(C)C)cc3)cn2)cc1 [Form A]
Form change on slurrying in a variety of solvent systems ([1]; all solvent systems tested between 2-8° C. and 45° C.): conversion to Form B

Cc1ccc(S(=O)(=O)OCCOCCOCCOc2ccc(/C=C/c3ccc(N(C)C(=O)OC(C)(C)C)cc3)cn2)cc1 [Form B]
Relative thermodynamic stability from DSC (heat-of-fusion rule) [2]: more stable than Form A
Thermodynamic stability from slurry experiments ([1]; between 2-8° C. and 45° C.): thermodynamically the more stable form

Cc1ccc(S(=O)(=O)OCCOCCOCCOc2ccc(/C=C/c3ccc(N(C)C(=O)OC(C)(C)C)cc3)cn2)cc1 [AV-105]
solubility ([3]; ACN/water 50/50 slurry supernatant, aqueous with cosolvent or surfactant or cyclodextrin, ACN/water 50/50, Aw 0.90, RT, solid Form B): 2 mg/mL (≈ 3.26 mM)
solubility ([3]; CPME slurry supernatant, 2 °C, organic solvent or mixture, CPME, 2-8° C., solid Form B): 25 mg/mL (≈ 40.8 mM)
solubility ([3]; CPME slurry supernatant, organic solvent or mixture, CPME, RT, solid Form B): 47 mg/mL (≈ 76.7 mM)
solubility ([3]; EtOAc/heptane 40/60 slurry supernatant, 2 °C, organic solvent or mixture, EtOAc/heptane 40/60, 2-8° C., solid Form B): 6 mg/mL (≈ 9.79 mM)
solubility ([3]; EtOAc/heptane 40/60 slurry supernatant, 35 °C, organic solvent or mixture, EtOAc/heptane 40/60, solid Form B): 34 mg/mL (≈ 55.5 mM)
solubility ([3]; EtOAc/heptane 40/60 slurry supernatant, organic solvent or mixture, EtOAc/heptane 40/60, RT, solid Form B): 27 mg/mL (≈ 44.1 mM)
solubility ([3]; EtOH slurry supernatant, 2 °C, organic solvent or mixture, EtOH, 2-8° C., with solvent replacement, solid Form B): 3 mg/mL (≈ 4.9 mM)
solubility ([3]; EtOH slurry supernatant, organic solvent or mixture, EtOH, RT, with solvent replacement (a), starting material mixture of Form A/Form B, solid Form B): 7 mg/mL (≈ 11.4 mM)
solubility ([3]; EtOH slurry supernatant, organic solvent or mixture, EtOH, RT, with solvent replacement, solid Form B): 7 mg/mL (≈ 11.4 mM)
solubility ([3]; IPA slurry supernatant, 45 °C, organic solvent or mixture, IPA, solid Form B): 44 mg/mL (≈ 71.8 mM)
solubility ([3]; IPA slurry supernatant, organic solvent or mixture, IPA, RT, with solvent replacement, solid Form B): 4 mg/mL (≈ 6.53 mM)
solubility ([3]; IPrOAc slurry supernatant, 35 °C, organic solvent or mixture, IPrOAc, solid Form B): 232 mg/mL (≈ 379 mM)
solubility ([3]; IPrOAc slurry supernatant, organic solvent or mixture, IPrOAc, RT, solid Form B): 93 mg/mL (≈ 152 mM)
solubility ([3]; MIBK slurry supernatant, 2 °C, organic solvent or mixture, MIBK, 2-8° C., solid Form B): 128 mg/mL (≈ 209 mM)
solubility ([3]; MIBK slurry supernatant, 35 °C, organic solvent or mixture, MIBK, solid Form B): 277 mg/mL (≈ 452 mM)
solubility ([3]; MIBK slurry supernatant, organic solvent or mixture, MIBK, RT, solid Form B): 137 mg/mL (≈ 224 mM)
solubility ([3]; MIBK/heptane 40/60 slurry supernatant, organic solvent or mixture, MIBK/heptane 40/60, RT, solid Form B): 15 mg/mL (≈ 24.5 mM)
solubility ([3]; MTBE slurry supernatant, organic solvent or mixture, MTBE, RT, solid Form B): 34 mg/mL (≈ 55.5 mM)
solubility ([3]; MeOH slurry supernatant, 2 °C, organic solvent or mixture, MeOH, 2-8° C., with solvent replacement, solid Form B): 6 mg/mL (≈ 9.79 mM)
solubility ([3]; MeOH slurry supernatant, organic solvent or mixture, MeOH, Freezer, solid Form B + small additional peaks): 5 mg/mL
solubility ([3]; MeOH slurry supernatant, organic solvent or mixture, MeOH, RT, with solvent replacement, solid Form B): 13 mg/mL (≈ 21.2 mM)
solubility ([3]; THF/cyclohexane 30/70 slurry supernatant, 2 °C, organic solvent or mixture, THF/cyclohexane 30/70, 2-8° C., solid Form B): 55 mg/mL (≈ 89.8 mM)
solubility ([3]; THF/cyclohexane 30/70 slurry supernatant, organic solvent or mixture, THF/cyclohexane 30/70, RT, solid Form B): 370 mg/mL (≈ 604 mM)
XRPD Results/observations ([1]; ACN/water 50/50, Aw 0.90, RT, start Form A, ~2 weeks slurry): Form B
XRPD Results/observations ([1]; CPME, 2-8° C., start Form A, ~2 weeks slurry): Form B
XRPD Results/observations ([1]; CPME, RT, start Form A, ~2 weeks slurry): Form B
XRPD Results/observations ([1]; EtOAc/heptane 40/60, 2-8° C., start Form A, ~2 weeks slurry): Form B
XRPD Results/observations ([1]; EtOAc/heptane 40/60, 35° C., start Form A, ~2 weeks slurry): Form B
XRPD Results/observations ([1]; EtOAc/heptane 40/60, RT, start Form A, ~2 weeks slurry): Form B
XRPD Results/observations ([1]; EtOH, 2-8° C., with solvent replacement, start Form A): Form B
XRPD Results/observations ([1]; EtOH, 45° C. (a), starting material mixture of Form A/Form B): Yellow gel
XRPD Results/observations ([1]; EtOH, 45° C., start Form A): Yellow solution,
XRPD Results/observations ([1]; EtOH, RT, with solvent replacement (a), starting material mixture of Form A/Form B): Form B
XRPD Results/observations ([1]; EtOH, RT, with solvent replacement, start Form A): Form B
XRPD Results/observations ([1]; IPA, 45° C., start Form A): Form B
XRPD Results/observations ([1]; IPA, RT, with solvent replacement, start Form A): Form B
XRPD Results/observations ([1]; IPrOAc, 35° C., start Form A): Form B
XRPD Results/observations ([1]; IPrOAc, RT, start Form A): Form B
XRPD Results/observations ([1]; MIBK/heptane 40/60, RT, start Form A): Form B
XRPD Results/observations ([1]; MIBK, 2-8° C., start Form A): Form B
XRPD Results/observations ([1]; MIBK, 35° C., start Form A): Form B
XRPD Results/observations ([1]; MIBK, RT, start Form A): Form B
XRPD Results/observations ([1]; MTBE, RT, start Form A): Form B
XRPD Results/observations ([1]; MeOH, 2-8° C., with solvent replacement, start Form A): Form B
XRPD Results/observations ([1]; MeOH, 45° C., start Form A): Orange gel
XRPD Results/observations ([1]; MeOH, Freezer, start Form A): Form B + small
XRPD Results/observations ([1]; MeOH, RT, with solvent replacement, start Form A): Form B
XRPD Results/observations ([1]; THF/cyclohexane 30/70, 2-8° C., start Form A): Form B
XRPD Results/observations ([1]; THF/cyclohexane 30/70, RT, start Form A): Form B
XRPD Results/observations ([1]; Water, 70° C., start Form A): Orange gel after
XRPD Results/observations ([1]; Water, RT, start Form A): Form A
